Laboratory results from the NIST ThermoML archive (doi:10.1021/je101232g).
Numbers after ± are expanded uncertainties.

Conditions: Liquid

CCCCCCCCCCCCCC[P+](CCCCCC)(CCCCCC)CCCCCC.O=S(=O)([N-]S(=O)(=O)C(F)(F)F)C(F)(F)F
mass density [kg/m3]
Conditions | 283.15 K | 293.15 K | 303.15 K | 313.15 K | 323.15 K | 333.15 K
100 kPa | 1077.4 ± 0.8 | 1070 ± 0.7 | 1062.7 ± 0.7 | 1055.4 ± 0.7 | 1048 ± 0.7 | 1040.8 ± 0.6
1000 kPa | 1077.9 ± 0.8 | 1070.5 ± 0.8 | 1063.3 ± 0.7 | 1056 ± 0.7 | 1048.7 ± 0.7 | 1041.5 ± 0.7
2000 kPa | 1078.4 ± 0.8 | 1071.2 ± 0.8 | 1063.9 ± 0.8 | 1056.7 ± 0.7 | 1049.3 ± 0.7 | 1042.2 ± 0.7
3000 kPa | 1079 ± 0.8 | 1071.8 ± 0.8 | 1064.5 ± 0.8 | 1057.3 ± 0.8 | 1050.1 ± 0.7 | 1042.9 ± 0.7
4000 kPa | 1079.6 ± 0.9 | 1072.3 ± 0.8 | 1065.2 ± 0.8 | 1057.9 ± 0.8 | 1050.7 ± 0.7 | 1043.6 ± 0.7
5000 kPa | 1080.2 ± 0.9 | 1072.9 ± 0.9 | 1065.8 ± 0.8 | 1058.6 ± 0.8 | 1051.4 ± 0.8 | 1044.4 ± 0.7
10000 kPa | 1083 ± 1 | 1075.9 ± 1 | 1068.8 ± 0.9 | 1061.7 ± 0.9 | 1054.7 ± 0.9 | 1047.8 ± 0.8
15000 kPa | 1085.6 ± 1.2 | 1078.6 ± 1.1 | 1071.8 ± 1.1 | 1064.9 ± 1 | 1057.9 ± 1 | 1051.2 ± 0.9
20000 kPa | 1088.3 ± 1.3 | 1081.4 ± 1.3 | 1074.7 ± 1.2 | 1067.8 ± 1.1 | 1061 ± 1.1 | 1054.3 ± 1
25000 kPa | 1090.8 ± 1.5 | 1084 ± 1.4 | 1077.4 ± 1.4 | 1070.7 ± 1.3 | 1064 ± 1.2 | 1057.4 ± 1.1
30000 kPa | 1093.3 ± 1.7 | 1086.6 ± 1.6 | 1080.1 ± 1.5 | 1073.5 ± 1.4 | 1066.9 ± 1.3 | 1060.4 ± 1.3
35000 kPa | 1095.6 ± 1.8 | 1089.1 ± 1.7 | 1082.7 ± 1.7 | 1076.2 ± 1.6 | 1069.8 ± 1.5 | 1063.3 ± 1.4
40000 kPa | 1097.9 ± 2 | 1091.5 ± 1.9 | 1085.1 ± 1.8 | 1078.8 ± 1.7 | 1072.4 ± 1.6 | 1066.2 ± 1.5
45000 kPa | 1100.2 ± 2.2 | 1093.9 ± 2.1 | 1087.7 ± 2 | 1081.3 ± 1.9 | 1075.1 ± 1.8 | 1068.9 ± 1.7

CCCCCCCCCCCCCC[P+](CCCCCC)(CCCCCC)CCCCCC.N#C[N-]C#N [tetradecyl(trihexyl)phosphonium dicyanamide]
mass density [kg/m3]
Conditions | 283.15 K | 293.15 K | 303.15 K | 313.15 K | 323.15 K | 333.15 K
100 kPa | 907.5 ± 0.7 | 901.7 ± 0.7 | 895.9 ± 0.8 | 890.2 ± 0.8 | 884.3 ± 0.8 | 878.6 ± 0.8
1000 kPa | 908 ± 0.8 | 902.1 ± 0.8 | 896.4 ± 0.8 | 890.6 ± 0.8 | 884.8 ± 0.8 | 879.2 ± 0.8
2000 kPa | 908.4 ± 0.8 | 902.6 ± 0.8 | 896.9 ± 0.8 | 891.2 ± 0.8 | 885.4 ± 0.9 | 879.7 ± 0.9
3000 kPa | 908.9 ± 0.8 | 903.1 ± 0.8 | 897.4 ± 0.8 | 891.6 ± 0.9 | 885.9 ± 0.9 | 880.2 ± 0.9
4000 kPa | 909.3 ± 0.8 | 903.5 ± 0.9 | 897.9 ± 0.9 | 892.1 ± 0.9 | 886.5 ± 0.9 | 880.8 ± 0.9
5000 kPa | 909.8 ± 0.9 | 904 ± 0.9 | 898.3 ± 0.9 | 892.7 ± 0.9 | 887 ± 1 | 881.3 ± 1
10000 kPa | 912.1 ± 1 | 906.3 ± 1 | 900.7 ± 1 | 895.1 ± 1.1 | 889.5 ± 1.1 | 884 ± 1.1
15000 kPa | 914.3 ± 1.1 | 908.5 ± 1.1 | 903 ± 1.2 | 897.5 ± 1.2 | 892 ± 1.3 | 886.6 ± 1.3
20000 kPa | 916.2 ± 1.2 | 910.7 ± 1.3 | 905.3 ± 1.3 | 899.9 ± 1.3 | 894.4 ± 1.4 | 889.1 ± 1.4
25000 kPa | 918.3 ± 1.3 | 912.8 ± 1.4 | 907.5 ± 1.4 | 902.1 ± 1.5 | 896.7 ± 1.5 | 891.4 ± 1.6
30000 kPa | 920.3 ± 1.4 | 914.9 ± 1.5 | 909.6 ± 1.5 | 904.3 ± 1.6 | 899 ± 1.7 | 893.9 ± 1.7
35000 kPa | 922.2 ± 1.5 | 916.9 ± 1.6 | 911.6 ± 1.6 | 906.5 ± 1.7 | 901.4 ± 1.8 | 896.2 ± 1.8
40000 kPa | 924.2 ± 1.6 | 918.9 ± 1.7 | 913.7 ± 1.7 | 908.5 ± 1.8 | 903.4 ± 1.9 | 898.3 ± 2
45000 kPa | 926.1 ± 1.7 | 920.9 ± 1.8 | 915.7 ± 1.8 | 910.7 ± 1.9 | 905.6 ± 2 | 900.5 ± 2.1
